This assay addresses Axl (Homo sapiens (Human), UniProt P30530). Nature of the assay: Phospho-Akt in-cell Western assay (Axl-antibody cross-linking stimulation). Format: cell-based. The settings on record: inhibition of Axl activity. A digest of the protocol:
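HeLa cells on poly-L-lysine, starved 24 hrs with Axl/Fc, pre-treated with compound 1 hr at 37° C., then stimulated 5 min with Axl primary/secondary antibody cluster. Fixed cells probed for phospho-Akt by chemiluminescent in-cell Western; signal normalized to crystal violet cell number.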

The mark [1] stands for this setting: phospho-Akt in-cell Western assay.
Where [2] appears, read: Hela cells, phospho-Akt readout, Table 5, formula (Ia3).
[3] abbreviates: Hela cells, phospho-Akt readout, Table 1, formula (Ia1).
Where [4] appears, read: Hela cells, phospho-Akt readout, Table 7, formula (Ia4).

The record followed here is patent US10166216B2 (Rigel Pharmaceuticals, Inc., priority 2006, dated 2019).

Sequence of Axl (P30530 26-894): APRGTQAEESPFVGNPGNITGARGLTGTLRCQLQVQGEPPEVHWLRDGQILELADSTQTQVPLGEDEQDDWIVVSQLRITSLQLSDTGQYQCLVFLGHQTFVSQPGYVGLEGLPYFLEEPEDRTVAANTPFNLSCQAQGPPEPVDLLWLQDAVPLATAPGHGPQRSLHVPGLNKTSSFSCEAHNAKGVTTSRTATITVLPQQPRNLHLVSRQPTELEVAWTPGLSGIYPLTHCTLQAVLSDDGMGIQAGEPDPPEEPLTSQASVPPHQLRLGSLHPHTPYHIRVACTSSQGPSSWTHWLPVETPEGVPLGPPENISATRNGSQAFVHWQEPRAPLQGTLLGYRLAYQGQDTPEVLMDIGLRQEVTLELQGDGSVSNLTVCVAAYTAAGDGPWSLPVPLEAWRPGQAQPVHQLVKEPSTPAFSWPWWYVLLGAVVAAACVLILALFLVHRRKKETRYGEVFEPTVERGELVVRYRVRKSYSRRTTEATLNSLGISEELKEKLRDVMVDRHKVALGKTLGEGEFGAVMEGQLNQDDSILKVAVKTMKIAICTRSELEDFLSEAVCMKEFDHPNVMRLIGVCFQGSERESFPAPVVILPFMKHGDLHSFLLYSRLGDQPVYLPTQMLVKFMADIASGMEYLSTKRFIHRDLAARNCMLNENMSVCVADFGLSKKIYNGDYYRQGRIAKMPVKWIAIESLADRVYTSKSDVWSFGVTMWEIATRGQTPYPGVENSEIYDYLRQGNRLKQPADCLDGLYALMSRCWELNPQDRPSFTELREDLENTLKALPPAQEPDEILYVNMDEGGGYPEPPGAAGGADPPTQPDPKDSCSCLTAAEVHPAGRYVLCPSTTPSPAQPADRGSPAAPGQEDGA

As usually defined, the IC50 is the midpoint of a concentration-inhibition curve. `Cc1csc2c(-n3nc(Nc4ccc(N5CCN([C@H]6CC7CCC6C7)CC5)cc4)nc3N)nc(-c3ccc4c(c3)OCO4)nc12` (stereo partly drawn) [Compound 236, 1-(7-methyl-2-benzo[d][1,3]dioxole-5-ylthieno[3,2-d]pyrimidin-4-yl)-N^3-(4-(4-((2S)-bicyclo[2.2.1]heptan-2-yl)piperazin-1-yl)phenyl)-1H-1,2,4-triazole-3,5-diamine] showed an IC50 under setting [1] greater than 20000 nM. For the compound `Nc1nc(Nc2ccc(N3CCN(C4CC5CCC4C5)CC3)cc2)nn1-c1nccc2occc12` (stereo not shown) [Compound 131, N^3-(4-(4-(bicyclo[2.2.1]heptan-2-yl)piperazin-1-yl)phenyl)-1-(furo[3,2-c]pyridin-4-yl)-1H-1,2,4-triazole-3,5-diamine], under setting [1], the IC50 is less than 1000 nM.

`COc1cc2ncnc(-n3nc(N)nc3Nc3ccc(N4CCN(C5CC6CCC5C6)CC4)cc3)c2cc1OC` (stereo not shown) [Compound 100, N^5-(4-(4-(bicyclo[2.2.1]heptan-2-yl)piperazin-1-yl)phenyl)-1-(6,7-dimethoxyquinazolin-4-yl)-1H-1,2,4-triazole-3,5-diamine] had an IC50 (Hela cells, phospho-Akt readout, Table 4, formula (Ib2)) of less than 1000 nM. Under setting [1], `CN1CCN(c2ccc(Nc3nc(N)n(-c4ncnc5ccc(Cl)cc45)n3)cc2)CC1` [Compound 85, 1-(6-chloroquinazolin-4-yl)-N^3-(4-(4-methylpiperazin-1-yl)phenyl)-1H-1,2,4-triazole-3,5-diamine] gave an IC50 of less than 1000 nM.

For the setting “Hela cells, phospho-Akt readout, Table 6, formula (Ib3)”, `Nc1nc(Nc2ccc(N3CCOCC3)cc2)n(-c2nccc3ccccc23)n1` [Compound 157, 1-(isoquinolin-1-yl)-N^5-(4-morpholinophenyl)-1H-1,2,4-triazole-3,5-diamine] returned an IC50 greater than 20000 nM. `COc1ccc2nc(Cl)c(-n3nc(Nc4ccc(N5CCC(N6CCCC6)CC5)c(F)c4)nc3N)nc2c1` [Compound 256, 1-(2-chloro-6-methoxy-quinoxalin-3-yl)-N^3-(3-fluoro-4-(4-(pyrrolidin-1-yl)piperidin-1-yl)phenyl)-1H-1,2,4-triazole-3,5-diamine] displayed an IC50 under setting [2] of less than 1000 nM.

Under setting [3], `Nc1nc(Nc2ccc(OCCN3CCCC3)cc2)nn1-c1ncccc1Cl` [Compound 18, 1-(3-chloropyridin-2-yl)-N^3-(4-(2-(pyrrolidin-1-yl)ethoxy)phenyl)-1H-1,2,4-triazole-3,5-diamine] showed an IC50 greater than 20000 nM. Consider `C[C@H]1CN(c2ccc(Nc3nc(N)n(-c4ncnc5ccsc45)n3)cc2F)CCN1[C@H]1C[C@@H]2CC[C@H]1C2` [Compound 255, 1-thieno[3,2-d]pyrimidin-4-yl-N^3-(3-fluoro-4-(3-(S)-methyl-4-((1S,2S,4R)-bicyclo[2.2.1]heptan-2-yl)piperazin-1-yl)phenyl)-1H-1,2,4-triazole-3,5-diamine], for which, under setting [1], the IC50 is less than 1000 nM. The compound `Cc1csc2c(-n3nc(Nc4ccc5c(c4)CCC(N4CCCC4)CC5)nc3N)nc(Cl)nc12` (stereo not shown) [Compound 219, 1-(7-methyl-2-chlorothieno[3,2-d]pyrimidin-4-yl)-N^3-(7-pyrrolidin-1-yl-6,7,8,9-tetrahydro-5H-benzo[7]annulene-2-yl)-1H-1,2,4-triazole-3,5-diamine] displayed an IC50 under setting [4] of less than 1000 nM. The compound `Nc1nc(Nc2ccc(N3CCN(C4CCCCC4)CC3)c(Cl)c2)nn1-c1nccc2ccccc12` [Compound 91, N^3-(3-chloro-4-(4-cyclohexylpiperazin-1-yl)phenyl)-1-(isoquinolin-1-yl)-1H-1,2,4-triazole-3,5-diamine] showed an IC50 under setting [1] of less than 1000 nM. Turning to `COc1cc2ncnc(-n3nc(Nc4ccc(OC5CCCN(C)C5)cc4)nc3N)c2cc1OC` (stereo not shown) [Compound 153, 1-(6,7-dimethoxyquinazolin-4-yl)-N^3-(4-(1-methylpiperidin-3-yloxy)phenyl)-1H-1,2,4-triazole-3,5-diamine], the IC50 under setting [2] was less than 1000 nM. In the case of `Cc1csc2c(-n3nc(Nc4ccc5c(c4)CCC(N(C)C4CC6CCC4C6)CC5)nc3N)nc(Cl)nc12` (stereo not shown) [Compound 221, 1-(7-methyl-2-chlorothieno[3,2-d]pyrimidin-4-yl)-N^3-(7-(N-methyl-N-bicyclo[2.2.1]heptan-2-yl)amino-6,7,8,9-tetrahydro-5H-benzo[7]annulene-2-yl)-1H-1,2,4-triazole-3,5-diamine], the IC50 under setting [4] was less than 1000 nM.

As to `Nc1nc(Nc2cc(F)c(F)c(F)c2)nn1-c1ccccn1` [Compound 149, 1-(pyridin-2-yl)-N^3-(3,4,5-trifluorophenyl)-1H-1,2,4-triazole-3,5-diamine], under setting [2], the IC50 was greater than 20000 nM. `Nc1nc(Nc2ccc(OCCN3CCCCC3)cc2)nn1-c1cccc(N2CCOCC2)n1` [Compound 20, 1-(6-morpholinopyridin-2-yl)-N^3-(4-(2-(piperidin-1-yl)ethoxy)phenyl)-1H-1,2,4-triazole-3,5-diamine]: under setting [3], the IC50 fell in the range of 10000 to 20000 nM. Under setting [1], `COc1cc2nc(Cl)nc(-n3nc(Nc4ccc(N5CCN(C6CC7CCC6C7)CC5)cc4)nc3N)c2cc1OC` (stereo not shown) [Compound 101, N^3-(4-(4-(bicyclo[2.2.1]heptan-2-yl)piperazin-1-yl)phenyl)-1-(2-chloro-6,7-dimethoxyquinazolin-4-yl)-1H-1,2,4-triazole-3,5-diamine] came in with an IC50 of 1000 to 10000 nM.

Take `Nc1nc(Nc2ccc(OCCN3CCCC3)cc2)nn1-c1cc(C(F)(F)F)ccn1` [Compound 26, N^3-(4-(2-(pyrrolidin-1-yl)ethoxy)phenyl)-1-(4-(trifluoromethyl)pyridin-2-yl)-1H-1,2,4-triazole-3,5-diamine]: the IC50 under setting [3] is less than 1000 nM. Compound `COc1cc2cnc(-n3nc(Nc4ccc(N5CCN(C6CCCCC6)CC5)c(F)c4)nc3N)nc2cc1OC` [Compound 181, 1-(6,7-dimethoxyquinazolin-2-yl)-N^3-(3-fluoro-4-(4-cyclohexylpiperazin-1-yl)phenyl)-1H-1,2,4-triazole-3,5-diamine] gave a half-inhibitory concentration (IC50) under setting [1] of less than 1000 nM. The same measure, in the same setting: next, `Nc1nc(Nc2ccc(N3CCN(C4CC5CCC4C5)CC3)cc2)nn1-c1cnc2ccccc2n1` (stereo not shown) [Compound 97, N^3-(4-(4-(bicyclo[2.2.1]heptan-2-yl)piperazin-1-yl)phenyl)-1-(quinoxalin-2-yl)-1H-1,2,4-triazole-3,5-diamine]: 1000 to 10000 nM; `COc1cc2ncnc(-n3nc(Nc4ccc(N5CCN(C)CC5)c(F)c4)nc3N)c2cc1OC` [Compound 105, 1-(6,7-dimethoxyquinazolin-4-yl)-N^3-(3-fluoro-4-(4-methylpiperazin-1-yl)phenyl)-1H-1,2,4-triazole-3,5-diamine]: less than 1000 nM. Take `Nc1nc(Nc2ccc(OCCN3CCCC3)cc2)nn1-c1nncc2ccccc12` [Compound 25, 1-(phthalazin-1-yl)-N^3-(4-(2-(pyrrolidin-1-yl)ethoxy)phenyl)-1H-1,2,4-triazole-3,5-diamine]: under setting [3], the IC50 is less than 1000 nM. `Cc1csc2c(-n3nc(Nc4ccc(N5CCN([C@H]6CC7CCC6C7)CC5)cc4)nc3N)nc(C=CCN3CCCC3)nc12` (stereo partly drawn) [Compound 239, 1-(7-methyl-2-(3-(pyrrolidin-1-yl)prop-1-enyl)thieno[3,2-d]pyrimidin-4-yl)-N^3-(4-(4-((2S)-bicyclo[2.2.1]heptan-2-yl)piperazin-1-yl)phenyl)-1H-1,2,4-triazole-3,5-diamine] had an IC50 under setting [1] of 1000 to 10000 nM. As to `Nc1nc(Nc2ccc(OCCN3CCCC3)cc2)nn1-c1nc2ccccc2[nH]1` [Compound 31, 1-(1H-benzo[d]imidazol-2-yl)-N^3-(4-(2-(pyrrolidin-1-yl)ethoxy)phenyl)-1H-1,2,4-triazole-3,5-diamine], the IC50 under setting [3] was greater than 20000 nM.
